# Data reported in patent US20090099095A1, “Novel neuroprotective peptide” (priority 2007, published 2009).
# Assays:
# [1] = tested on: organotypic hippocampal slice cultures (OHSCs); experiment: NMDA-induced excitotoxicity in organotypic hippocampal slice cultures, propidium iodide (PI) uptake; assay type: cell-based, rat
# Method: To test the neuroprotective qualities of test media, OHSCs were first preincubated with PI for 24 hours. Fluorescent photomicrographs were taken, and used to determine the level of background staining. OHSCs were then transferred to test media one hour before 10 μM NMDA was added. Photomicrographs were taken again after 24 hours of NMDA exposure, and the change in PI staining intensity was quantified.
# Rat organotypic hippocampal slice cultures (400 μm thick) were prepared from P9 Sprague-Dawley rats, using the method of Stoppini and coworkers^9. OHSCs were cultured in slice medium (50% BME, 25% EBSS, 23% horse serum, 7.5 mg/ml D-glucose, 1 mM L-glutamine and 25 U/ml PEST) for 12-14 days before experiments commenced.
# OHSCs were transferred to test media one hour before exposure to 10 μM NMDA for 24 h. The degree of NMDA-induced excitotoxicity was determined by comparing propidium iodide (PI) uptake prior to exposure with that following exposure. Pictures were captured using a digital camera (Olympus DP50) coupled to an inverted fluorescence microscope (Olympus IX70), equipped with a red long-pass WG fluorescence filter. Uptake of PI was quantified as the mean pixel intensity of epifluorescence, over the whole slice, or in defined sub-regions (ImageJ v1.29x).
# [2] = tested on: cells in the dentate gyrus of OHSCs; experiment: Immunofluorescence count of dentate gyrus cells double-labelled for PI and DCX or NeuN after NMDA; assay type: cell-based, rat
# Method: To determine the cell types which were protected by pentinin, we fixed OHSCs and performed immunofluorescence for markers of neuronally committed progenitors (DCX) and neurons (NeuN). Cells in the dentate gyrus were counted, and the percentage of cells double-labelled for PI and each marker was determined.
# To characterise cell death, OHSCs were cultured in N2 medium with different concentrations of NMDA (in the presence of PI). After 24 h, OHSCs were washed in PBS and fixed in 4% paraformaldehyde (overnight, 4° C.). OHSCs were blocked and permeabilised by incubation for two hours in PTS (0.1M sodium phosphate buffer, 0.3% triton X-100 and 1% donkey serum (Jackson Immunoresearch Laboratories Inc., West Grove, Pa.)) at room temperature (RT), then incubated overnight (rocking, 4° C.) with mouse anti-NeuN antibody (1:500, Chemicon International Inc, Temecula, Calif.), rabbit anti-Caspase3A antibody (1:250, Cell Signalling Technology), and goat anti doublecortin antibody (Dcx, 1:400, Santa Cruz Biotechnology, Santa Cruz, USA). After thorough washing (3×30 mins in PTS, rocking), OHSCs were incubated overnight (rocking, 4° C.) with donkey anti-mouse Alexa 647-conjugated antibody (1:800, Molecular Probes, Leiden, Netherlands), donkey anti-rabbit Alexa 488-conjugated antibody (1:800, Molecular Probes) and donkey anti-goat Alexa 488-conjugated antibody (1:800, Molecular Probes). OHSCs were washed thoroughly and mounted in Prolong Gold mounting medium (Molecular Probes). Colocalisation of PI and/or Caspase3A staining with NeuN and Dcx immunofluorescence was determined by confocal microscopy (Leica TCS SP2, Leica Microsystems AG, Wetzlar, Germany).
# [3] = tested on: organotypic hippocampal slice cultures (OHSCs); conditions: high doses, literature ref 10; cited from earlier work
Molecule,effect on excitotoxicity induced by NMDA ([1]; 100 μM peptide in unconditioned medium),"effective dose in dose response assay ([1]; synthetic peptide added to unconditioned medium, results not shown)",reduction of percentage of immature neuronal marker (DCX) cells co-labelled with PI ([2]; 100 pM pentinin),reduction of percentage of mature neuronal marker (NeuN) cells co-labelled with PI ([2]; 100 pM pentinin),number of neurons killed by NMDA-induced toxicity ([2]; 100 pM synthetic pentinin),"effect on NMDA-induced excitotoxicity / PI staining (in words) ([1]; whole slice, 10 μM NMDA 24 h, GDNF at 1 ng/ml where added)",doses at which neuroprotective in OHSCs [3]
"tyr, thr, pro, lys, thr (YTPKT; Human) [pentinin, pentameric peptide fragment corresponding to residues 26-30 of the insulin B chain]",reduce excitotoxicity,100 µM,86%,64%,markedly reduced,–,–
"glial-derived neurotrophic factor (protein, UniProt P39905 78-211, looked up, recombinant protein added to control medium at 1 ng/ml) Glial cell line-derived …: SPDKQMAVLPRRERNRQAAAANPENSRGKGRRGQRGKNRGCVLTAIHLNVTDLGLGYETKEELIFRYCSGSCDAAETTYDKILKNLSRNRRLVSDKVGQACCRPIAFDDDLSFLDDNLVYHILRKHSAKRCGCI",–,–,–,–,–,did not reduce excitotoxicity,50 to 100 ng/mL
